Reference: PubChem BioAssay (NCI)
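Tested at 5 concentrations; 48 h exposure; 96-well plates; endpoints linearly interpolated, else capped at highest concentration. TGI marks complete inhibition of growth.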

What was measured:
Assay in all cases: NCI tumour cell line growth inhibition, 48 h
EKVX NSCLC = test system: EKVX NSCLC
OVCAR-4 ovarian = test system: OVCAR-4 ovarian
SF-295 CNS = test system: SF-295 CNS
SNB-19 CNS = test system: SNB-19 CNS
SK-OV-3 ovarian = test system: SK-OV-3 ovarian
CAKI-1 renal = test system: CAKI-1 renal
SW-620 colon = test system: SW-620 colon
SF-539 CNS = test system: SF-539 CNS
NCI/ADR-RES ovarian = test system: NCI/ADR-RES ovarian
HCC-2998 colon = test system: HCC-2998 colon
NCI-H23 lung = test system: NCI-H23 lung
A498 renal = test system: A498 renal
DMS 114 small cell lung = test system: DMS 114 small cell lung
HOP-18 NSCLC = test system: HOP-18 NSCLC
KM12 colon = test system: KM12 colon
SNB-78 CNS = test system: SNB-78 CNS
RXF 393 renal = test system: RXF 393 renal
XF 498 CNS = test system: XF 498 CNS
HT29 colon = test system: HT29 colon
NCI-H226 lung = test system: NCI-H226 lung
SN12C renal = test system: SN12C renal
U251 CNS = test system: U251 CNS
OVCAR-8 ovarian = test system: OVCAR-8 ovarian
DMS 273 small cell lung = test system: DMS 273 small cell lung
UO-31 renal = test system: UO-31 renal
P388/ADR leukemia = test system: P388/ADR leukemia
SF-268 CNS = test system: SF-268 CNS
P388 leukemia = test system: P388 leukemia
SNB-75 CNS = test system: SNB-75 CNS
K-562 leukemia = test system: K-562 leukemia
OVCAR-5 ovarian = test system: OVCAR-5 ovarian
UACC-62 melanoma = test system: UACC-62 melanoma
OVCAR-3 ovarian = test system: OVCAR-3 ovarian
M19-MEL melanoma = test system: M19-MEL melanoma
IGROV1 ovarian = test system: IGROV1 ovarian
CCRF-CEM leukemia = test system: CCRF-CEM leukemia
UACC-257 melanoma = test system: UACC-257 melanoma
HCT-116 colon = test system: HCT-116 colon
KM20L2 colon = test system: KM20L2 colon
A549 NSCLC = test system: A549 NSCLC
HL-60(TB) leukemia = test system: HL-60(TB) leukemia
LOX IMVI melanoma = test system: LOX IMVI melanoma
RPMI-8226 leukemia = test system: RPMI-8226 leukemia
HOP-92 NSCLC = test system: HOP-92 NSCLC
COLO 205 colon = test system: COLO 205 colon
MOLT-4 leukemia = test system: MOLT-4 leukemia
SN12K1 renal = test system: SN12K1 renal
HCT-15 colon = test system: HCT-15 colon
SK-MEL-28 melanoma = test system: SK-MEL-28 melanoma
MALME-3M melanoma = test system: MALME-3M melanoma
SK-MEL-2 melanoma = test system: SK-MEL-2 melanoma
SK-MEL-5 melanoma = test system: SK-MEL-5 melanoma
HOP-62 NSCLC = test system: HOP-62 NSCLC
NCI-H460 lung = test system: NCI-H460 lung
DLD-1 colon = test system: DLD-1 colon
NCI-H522 lung = test system: NCI-H522 lung
MCF7 breast = test system: MCF7 breast

Measured: TGI

O=Cc1c(Cn2ccnc2)c2cc([N+](=O)[O-])ccc2n1Cc1ccccc1
90.2 µM: HOP-62 NSCLC
> 92.3 µM: SF-295 CNS
97.3 µM: CAKI-1 renal
> 100 µM: EKVX NSCLC | OVCAR-4 ovarian | SNB-19 CNS | SK-OV-3 ovarian | SW-620 colon | SF-539 CNS | NCI/ADR-RES ovarian | HCC-2998 colon | NCI-H23 lung | A498 renal | DMS 114 small cell lung | HOP-18 NSCLC | KM12 colon | SNB-78 CNS | RXF 393 renal | XF 498 CNS | HT29 colon | NCI-H226 lung | SN12C renal | U251 CNS | OVCAR-8 ovarian | DMS 273 small cell lung | UO-31 renal | P388/ADR leukemia | SF-268 CNS | P388 leukemia | SNB-75 CNS | K-562 leukemia | OVCAR-5 ovarian | UACC-62 melanoma | OVCAR-3 ovarian | M19-MEL melanoma | IGROV1 ovarian | CCRF-CEM leukemia | UACC-257 melanoma | HCT-116 colon | KM20L2 colon | A549 NSCLC | LOX IMVI melanoma | RPMI-8226 leukemia | HOP-92 NSCLC | COLO 205 colon | MOLT-4 leukemia | SN12K1 renal | HCT-15 colon | SK-MEL-28 melanoma | MALME-3M melanoma | SK-MEL-2 melanoma | SK-MEL-5 melanoma | NCI-H460 lung | DLD-1 colon | NCI-H522 lung | MCF7 breast
> 41.9 µM: HL-60(TB) leukemia

COC(=O)C(C/C=C(\C)c1ccccc1)C(C)=O (stereo not drawn)
53.6 µM: HL-60(TB) leukemia
> 87.4 µM: UACC-257 melanoma
> 82.8 µM: SN12K1 renal
> 82.1 µM: P388 leukemia
51.6 µM: MOLT-4 leukemia
98.3 µM: HOP-92 NSCLC
> 100 µM: EKVX NSCLC | OVCAR-4 ovarian | SF-295 CNS | SNB-19 CNS | SK-OV-3 ovarian | SW-620 colon | SF-539 CNS | NCI/ADR-RES ovarian | HCC-2998 colon | NCI-H23 lung | A498 renal | HOP-18 NSCLC | KM12 colon | SNB-78 CNS | RXF 393 renal | XF 498 CNS | HT29 colon | NCI-H226 lung | SN12C renal | U251 CNS | OVCAR-8 ovarian | DMS 273 small cell lung | UO-31 renal | P388/ADR leukemia | SF-268 CNS | SNB-75 CNS | K-562 leukemia | OVCAR-5 ovarian | UACC-62 melanoma | OVCAR-3 ovarian | M19-MEL melanoma | IGROV1 ovarian | CCRF-CEM leukemia | HCT-116 colon | KM20L2 colon | A549 NSCLC | LOX IMVI melanoma | RPMI-8226 leukemia | COLO 205 colon | HCT-15 colon | SK-MEL-28 melanoma | MALME-3M melanoma | SK-MEL-2 melanoma | SK-MEL-5 melanoma | HOP-62 NSCLC | NCI-H460 lung | DLD-1 colon | NCI-H522 lung | MCF7 breast
> 95.9 µM: DMS 114 small cell lung
